{
  "source": "patent US20260015436A1",
  "about": "“ANTIBODIES FOR CHELATED RADIONUCLIDES” (Hoffmann-La Roche Inc., priority 2018, published 2026)",
  "key": {"[1]": {"tested_on": "BxPC3 tumors", "experiment": "Protocol 95: TCMC saturation, CA amount and ^212Pb activity on tumor-associated radioactivity", "assay_type": "in vivo, mice", "settings": "no clearing agent", "from_the_text": "In this study, nine different clearing agents based on dextran-500 were compared in terms of inhibition of ^212Pb-DOTAM association to tumors. More specifically, the experiment assessed the impact on tumor-associated radioactivity from i) TCMC saturation, ii) clearing agent-to-antibody ratio, and iii) production/purification method. In addition, the tumor uptake was compared after injection of 10 or 30 μCi of ^212Pb-DOTAM, without pretargeting or CA, to assess whether radioactivity saturation of the tumor was achieved already at the lower dose.\nPRIT-0165 (100 μg per 100 μL) was administered i.v., followed three days later by dextran-500-based clearing reagents (10-170 μg per 100 μL) with varying TCMC substitution (10-100%). Groups J and K received PBS instead of clearing agent. Two hours later, mice were injected i.v. with 100 μL of the respective ^212Pb-DOTAM solutions (10 or 30 μCi).\nMice were sacrificed and necropsied 24 hours after injection of ^212Pb-DOTAM. Blood, bladder, spleen, kidneys, liver, lung, muscle, tail, and tumors were collected, weighed and measured for radioactivity content, and the % ID/g subsequently calculated."}, "[2]": {"tested_on": "BxPC3 tumors", "experiment": "Protocol 103: efficacy of CEA-PRIT, s.c. BxPC3 tumors", "assay_type": "in vivo, SCID mice", "settings": "result in words", "protocol": "Step 1: Administration of a BsAb (i.v. or i.p.): The BsAb used in the studies binds Pb-DOTAM with high affinity and targets the tumor e.g. via CEA.\nStep 2: Administration of CA (i.v. or i.p.): To allow efficient tumor accumulation of ^212Pb-DOTAM, circulating BsAb needs to be neutralized in the blood using a CA that blocks ^212Pb-DOTAM binding to unbound BsAb, without penetrating into the tumor and consequently blocking the pretargeted sites. The CA is administered once the BsAb has accumulated to a sufficient degree in the tumor, generally after 4-10 days. […]\nThe body weight (BW) of the study animals was measured at least 3 times per week, with additional measurements as needed depending on the health status. […]\nwhere d indicates treatment day and 0 the baseline value. […] Tumor regression (TR) was calculated according to: […]\nThis study assessed the efficacy of CEA-PRIT using the CEA-DOTAM BsAb for treatment of s.c. BxPC3 tumors in mice. The therapy was administered either as a single treatment with 10 or 30 μCi of ^212Pb-DOTAM, or in three repeated cycles for each of the two radioactivity levels. […] Biodistributions were performed after the first and second cycle to confirm ^212Pb-DOTAM targeting and clearance, and the treatment efficacy was assessed in terms of TGI, TR, and survival. […]"}},
  "data": [
    {"smiles": "NC(=O)CN1CCN(CC(N)=O)CCN(CC(N)=O)CCN(CC(N)=O)CC1.[212Pb+2]", "note": "[^212Pb-DOTAM]", "values": [
      {"measurement": "tumor accumulation (±SD, n=3)", "setting": "[1]; 10 μCi", "value": "72.38±10.83", "unit": "% ID/g"},
      {"measurement": "tumor accumulation (±SD, n=3)", "setting": "[1]; 30 μCi", "value": "107.74±14.71", "unit": "% ID/g"},
      {"measurement": "radiation-induced toxicity / tolerability", "setting": "[2]; 10 μCi", "value": "safe radioactivity level"},
      {"measurement": "radiation-induced toxicity / tolerability", "setting": "[2]; 30 μCi", "value": "approaching the maximum tolerated activity"}
    ]}
  ]
}
